{"source": "patent US20130295115A1", "about": "“COMPOSITIONS AND METHODS FOR TREATING […]” (priority 2010, published 2013)", "tested_on": "VSV", "assay_type": "cell-based, Vesicular Stomatitis Virus", "data": [{"substance": "Ammonium Iron(III) Citrate", "values": [{"measurement": "VSV binding", "result": "no affect"}]}]}
